# Results: patent publication US20260083704A1, “LXR MODULATORS WITH BICYCLIC CORE MOIETY FOR TREATING DYSLIPIDEMIAS” (OrsoBio, Inc., priority 2022, published 2026)
# Marks after values point to notes of the source that are not given here.
# Legend:
# [1] = test system: steatotic human liver organoids (sHLO); experiment: Steatotic human liver organoid (sHLO) model; assay type: cell-based; settings: 3 days
# Protocol: Data in FIG. 2A are obtained from (Ouchi, Togo et al. 2019). Data are shown as mean±SD. n=4 wells per treatment.
# Activity of Compound 21/3 was also evaluated in an induced pluripotent stem cell (iPSC)-derived human liver organoid (HLO) model established from human donors with different genetic backgrounds, including those with known genetic risk variants for NASH (Ouchi, Togo et al. 2019). The HLOs were exposed to high concentrations of lipid to induce a reproducible steatotic NASH phenotype (sHLO) with increased expression of DNL genes, including NR1H3, the gene that encodes LXRα (FIG. 2A) (Ouchi, Togo et al. 2019, Minniti, Pedrelli et al. 2020). […] Mutations in GCKR have been associated with increased circulating lipids, hepatic DNL, and diseases including diabetes and NASH (Fernandes Silva, Vangipurapu et al. 2019).
# healthy subjects = experiment: Phase 1 study, MAD cohorts: safety and tolerability; assay type: in vivo, human; settings: for Abdominal pain / Any TEAE / Back pain / Diarrhea / Grade ≥2 TEAE / Headache / Pruritis / Serious TEAE / TEAE leading to study drug discontuation / Treatment-related TEAE / subjects with mild (Grade 1), transient increase in serum ALT: MAD; for Abdominal pain / Any TEAE / Back pain / Diarrhea / Grade ≥2 TEAE / Headache / Pruritis / Serious TEAE / TEAE leading to study drug discontuation / Treatment-related TEAE: n = 8
# Protocol: A double-blind, placebo-controlled, single- and multiple-ascending dose FIH Phase 1 study to evaluate the safety, tolerability, PK, and PD of Compound 21/3 in healthy adult subjects was performed. A total of up to 150 subjects were enrolled, including 100 subjects in Parts A and B, and up to 50 subjects in adaptive cohorts in Part C. Within each cohort, 10 subjects were randomized, including 8 subjects randomized to Compound 21/3 and 2 subjects to PTM (placebo-to-match). In single-dose cohorts in Parts A and in any Part C cohort evaluating a higher total daily dose than previously evaluated, safety and tolerability data collected through Day 2 from two sentinel subjects, one randomized to Compound 21/3 and one to PTM, were evaluated prior to dosing of the remaining subjects in each cohort.
# An approximately even distribution of healthy male and non-pregnant, non-lactating female subjects 18 to 55 years of age, inclusive, were to be enrolled in the study. There were no significant medical conditions by history, physical examination, or laboratory evaluation. Subjects were not allowed to participate in more than one cohort of the study. Within each MAD cohort, attempts were made to enrich for >3 subjects with elevated TG and/or LDL-C. Following the completion of Screening and admission assessments, eligible subjects were to be enrolled on Day −1. Safety and tolerability assessments, including adverse event (AE) monitoring, laboratory tests, physical examinations, and ECG evaluations were performed throughout the study.
# The severity of AEs was graded using the Common Terminology Criteria for Adverse Events version 5.0 (CTCAE v5.0).
# HFD-fed (DIO) mice = experiment: Intestinal lipid absorption (3H-triolein tracer) in HFD-fed mice; assay type: in vivo; settings: 5 mg/kg oral gavage
# Description: Data are shown as mean±SD. N=5-8 animals per group. *p≤0.05, **p≤0.01, ***p≤0.001, ****p≤0.0001 vs. vehicle, unless otherwise indicated; ^#p≤0.05 pioglitazone vs. vehicle Kruskal-Wallis (non-parametric One-Way ANOVA) test with Dunn's multiple comparisons test (FIG. 4A, FIG. 4B, FIG. 4D), repeated measures two-way ANOVA with Dunnett's multiple comparisons test (FIG. 4C), two-way ANOVA with Sidak's multiple comparisons test (FIG. 4E), Mann-Whitney test (FIG. 4F-G).
# In addition to the effects of Compound 21/3 on hepatic DNL, the observed reductions in plasma TG in these models may be mediated by reduced intestinal TG absorption, as well as increased clearance of TG-containing lipoproteins from the circulation. […] Further, LXR inhibition with Compound pre-6/3 reduced intestinal lipid absorption as measured by reduced uptake of ^3H-labelled triolein tracer in HFD-fed mice (FIG. 4E). Additionally, Compound 21/3 reduced hepatic expression and plasma levels of ANGPTL3, an inhibitor of LPL, the predominant enzyme involved in the clearance of TG-rich lipoproteins from the circulation (FIG. 4F). Loss-of-function variants in ANGPTL3 are associated with reduced serum lipids and a lower risk of CAD (Dewey, Gusarova et al. 2017). […]
compound,measurement,setting,value
N#Cc1cccc(C#N)c1-c1c(-c2cccc(-c3ccc(C(=O)NCC(=O)O)cc3Cl)c2)n(S(=O)(=O)c2ccc(C(F)F)cc2)c2ccc(F)cc12 [Compound 21/3],intracellular lipid content,[1]; patient-derived sHLOs,dose-dependently reduced
same,expression of DNL-associated genes,[1]; sHLOs from GCKR wild-type (CC) or mutant (TT) carriers,suppressed
same,Abdominal pain,"healthy subjects; 0.5 mg, fed",1 (13)
same,Any TEAE,"healthy subjects; 0.5 mg, fed",7 (88)
same,Back pain,"healthy subjects; 0.5 mg, fed",0 (0)
same,Diarrhea,"healthy subjects; 0.5 mg, fed",2 (25)
same,Grade ≥2 TEAE,"healthy subjects; 0.5 mg, fed",0 (0)
same,Headache,"healthy subjects; 0.5 mg, fed",1 (13)
same,Pruritis,"healthy subjects; 0.5 mg, fed",4 (50)
same,Serious TEAE,"healthy subjects; 0.5 mg, fed",0 (0)
same,TEAE leading to study drug discontuation,"healthy subjects; 0.5 mg, fed",0 (0)
same,Treatment-related TEAE,"healthy subjects; 0.5 mg, fed",0 (0)
same,Abdominal pain,"healthy subjects; 2 mg, fed",0 (0)
same,Any TEAE,"healthy subjects; 2 mg, fed",3 (38)
same,Back pain,"healthy subjects; 2 mg, fed",0 (0)
same,Diarrhea,"healthy subjects; 2 mg, fed",0 (0)
same,Headache,"healthy subjects; 2 mg, fed",0 (0)
same,Pruritis,"healthy subjects; 2 mg, fed",0 (0)
same,Serious TEAE,"healthy subjects; 2 mg, fed",0 (0)
same,TEAE leading to study drug discontuation,"healthy subjects; 2 mg, fed",0 (0)
same,Treatment-related TEAE,"healthy subjects; 2 mg, fed",0 (0)
same,Grade ≥2 TEAE,"healthy subjects; 2 mg, fed, Grade 2 thrombophlebitis considered unrelated to study treatment",1 (13)*
same,Abdominal pain,healthy subjects; 6 mg (fasted),1 (13)
same,Any TEAE,healthy subjects; 6 mg (fasted),1 (13)
same,Back pain,healthy subjects; 6 mg (fasted),0 (0)
same,Diarrhea,healthy subjects; 6 mg (fasted),0 (0)
same,Grade ≥2 TEAE,healthy subjects; 6 mg (fasted),0 (0)
same,Headache,healthy subjects; 6 mg (fasted),0 (0)
same,Pruritis,healthy subjects; 6 mg (fasted),0 (0)
same,Serious TEAE,healthy subjects; 6 mg (fasted),0 (0)
same,TEAE leading to study drug discontuation,healthy subjects; 6 mg (fasted),0 (0)
same,Treatment-related TEAE,healthy subjects; 6 mg (fasted),0 (0)
same,Abdominal pain,"healthy subjects; 6 mg, fed",1 (13)
same,Any TEAE,"healthy subjects; 6 mg, fed",5 (63)
same,Back pain,"healthy subjects; 6 mg, fed",2 (25)
same,Diarrhea,"healthy subjects; 6 mg, fed",1 (13)
same,Grade ≥2 TEAE,"healthy subjects; 6 mg, fed",0 (0)
same,Headache,"healthy subjects; 6 mg, fed",1 (13)
same,Pruritis,"healthy subjects; 6 mg, fed",0 (0)
same,Serious TEAE,"healthy subjects; 6 mg, fed",0 (0)
same,TEAE leading to study drug discontuation,"healthy subjects; 6 mg, fed",0 (0)
same,Treatment-related TEAE,"healthy subjects; 6 mg, fed",1 (13)
same,Abdominal pain,"healthy subjects; 12 mg, fed",1 (13)
same,Any TEAE,"healthy subjects; 12 mg, fed",3 (38)
same,Back pain,"healthy subjects; 12 mg, fed",0 (0)
same,Diarrhea,"healthy subjects; 12 mg, fed",2 (25)
same,Grade ≥2 TEAE,"healthy subjects; 12 mg, fed",0 (0)
same,Headache,"healthy subjects; 12 mg, fed",2 (25)
same,Pruritis,"healthy subjects; 12 mg, fed",0 (0)
same,Serious TEAE,"healthy subjects; 12 mg, fed",0 (0)
same,TEAE leading to study drug discontuation,"healthy subjects; 12 mg, fed",0 (0)
same,Treatment-related TEAE,"healthy subjects; 12 mg, fed",2 (25)
same,tolerability,"healthy subjects; healthy subjects, 0.5, 2, 6, and 12 mg for 14 days",well tolerated
same,"subjects with treatment-related TEAEs (all mild, gastrointestinal)","healthy subjects; healthy subjects, MAD cohorts",3 subjects
same,proportion of subjects with adverse events (AEs),"healthy subjects; healthy subjects, MAD cohorts, range over dose groups",13-88%
same,"subjects with mild (Grade 1), transient increase in serum ALT","healthy subjects; healthy subjects, 6 mg group, fed",one
same,"subjects with mild (Grade 1), transient increase in serum ALT","healthy subjects; healthy subjects, 12 mg group, fed",4 subjects
same,safety and tolerability,"healthy subjects; healthy subjects, single and multiple daily doses up to 20 mg/d for 14 days",safe and well tolerated
N#Cc1cccc(C#N)c1-c1c(-c2cccc(-c3ccc(C(=O)O)cc3Cl)c2)n(S(=O)(=O)c2ccc(C(F)F)cc2)c2ccc(F)cc12 [pre-6/3],intestinal lipid absorption (uptake of 3H-labelled triolein tracer),HFD-fed (DIO) mice,reduced
